Reference: patent US20080146524A1, “Selective inhibitors of neurotensin degrading enzymes” (Solvay Pharmaceuticals B.V., priority 2006, published 2008)
Residues, ends and D or L forms follow the SMILES beside them.

Columns and labels:
[1] = molecular target: Thimet oligopeptidase EC 3.4.24.15 (UniProt P24155); experiment: enzyme inhibition of Thimet oligopeptidase EC 3.4.24.15 (published methods, Dauch 1991a,b); assay type: biochemical
Neurolysine EC 3.4.24.16 = Neurolysine EC 3.4.24.16 (UniProt P42676); assay type: biochemical
endopeptidase 24.16 = endopeptidase 24.16 (Rattus norvegicus, UniProt P42676); conditions: cited from earlier work
Chain of endopeptidase 24.16 (P42676 38-704): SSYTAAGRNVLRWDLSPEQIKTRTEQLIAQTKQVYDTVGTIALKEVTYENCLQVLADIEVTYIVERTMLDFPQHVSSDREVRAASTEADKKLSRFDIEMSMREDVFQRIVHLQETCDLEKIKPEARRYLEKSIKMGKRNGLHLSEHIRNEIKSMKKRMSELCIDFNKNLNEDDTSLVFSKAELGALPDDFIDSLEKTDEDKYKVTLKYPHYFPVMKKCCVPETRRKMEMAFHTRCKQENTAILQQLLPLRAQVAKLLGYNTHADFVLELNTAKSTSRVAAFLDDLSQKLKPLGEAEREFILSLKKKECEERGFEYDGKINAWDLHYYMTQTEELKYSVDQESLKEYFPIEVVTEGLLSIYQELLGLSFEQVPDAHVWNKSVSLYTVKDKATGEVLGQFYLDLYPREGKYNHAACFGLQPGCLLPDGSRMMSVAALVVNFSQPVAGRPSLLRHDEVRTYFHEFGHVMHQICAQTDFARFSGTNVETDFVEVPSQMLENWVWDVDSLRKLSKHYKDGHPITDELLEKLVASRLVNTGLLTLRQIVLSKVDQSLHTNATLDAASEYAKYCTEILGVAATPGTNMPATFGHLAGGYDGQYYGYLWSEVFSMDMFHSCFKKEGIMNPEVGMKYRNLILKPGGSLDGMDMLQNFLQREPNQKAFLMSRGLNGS

endopeptidase 24.15 = endopeptidase 24.15 (Rattus norvegicus, UniProt P24155); conditions: at concentrations as high as 5 mM; cited from earlier work
Chain of endopeptidase 24.15 (P24155 whole entry): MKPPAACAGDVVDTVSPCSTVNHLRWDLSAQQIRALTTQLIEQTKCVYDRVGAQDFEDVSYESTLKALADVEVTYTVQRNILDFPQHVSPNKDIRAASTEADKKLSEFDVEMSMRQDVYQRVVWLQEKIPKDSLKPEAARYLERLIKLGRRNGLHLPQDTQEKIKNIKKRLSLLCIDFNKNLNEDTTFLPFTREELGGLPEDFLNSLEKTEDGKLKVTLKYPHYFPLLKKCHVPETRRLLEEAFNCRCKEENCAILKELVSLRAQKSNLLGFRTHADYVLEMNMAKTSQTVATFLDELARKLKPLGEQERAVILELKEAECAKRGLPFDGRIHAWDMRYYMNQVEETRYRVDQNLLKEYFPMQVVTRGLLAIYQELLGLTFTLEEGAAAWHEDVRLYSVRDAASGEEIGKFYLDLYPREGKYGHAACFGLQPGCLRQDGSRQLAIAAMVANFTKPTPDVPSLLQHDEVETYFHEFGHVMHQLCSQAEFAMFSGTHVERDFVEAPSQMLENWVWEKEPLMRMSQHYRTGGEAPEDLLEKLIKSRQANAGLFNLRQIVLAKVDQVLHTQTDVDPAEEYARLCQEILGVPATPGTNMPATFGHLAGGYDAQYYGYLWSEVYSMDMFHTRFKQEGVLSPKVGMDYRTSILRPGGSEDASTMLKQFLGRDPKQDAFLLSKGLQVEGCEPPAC

[2] = determination of chemical stability, storage in glass vials, LC-MS; assay type: physicochemical; conditions: for relative stability: stored in glass vials, LC-MS; for stability on storage (in words): over 10 days (240 hr)
Description: Compound 36 and its phosphinamide analog phosphodiepril (FR 2 654 430, synthesized as disclosed therein) were stored separately in glass vials. At different time intervals samples were taken and analyzed by LC-MS. Samples were dissolved in DMSO (0.1 mg/ml) and diluted by a factor 100 in the first LC eluent (A). At fixed time points an amount of 100 μl was taken from the formulations. These time points were 0, 3, 72, and 240 hours. All samples were measured in the positive mode, with an ESI source on the LC-MS.
Eluents were composed of water (H2O), acetonitril (ACN), methanol (MeOH) and ammonium-acetate (NH4Ac). The eluent is mixed out of two different bottles with two different compositions. • Eluent A consists of H2O/ACN/MeOH 800/100/100+0.77 g/l NH4Ac. • Eluent B consists of H2O/ACN/MeOH 100/800/100+0.77 g/l NH4Ac.
The gradient in the pump was set to:
Columns: Chromsep Guard Column SS 10×2 mm (CP28141) and Inertsil 5 ODS-3 100×3.0 mm (CP22234). Column temperature: 25° C.
Injection: well plate temperature: 25° C. • Injection volume: 20 μl • Splitter (post column): 1:4 • Run time: 9.50 minutes.
Detection MS-MS:ESI (pos/neg) spray 3.0 kV • Fragmentor 70 • Gain 2.0 • Dwell 700 msec • Nebulizer pressure 42 psig • Drying gas temperature 325° C. • Capillary temperature 325° C.
Compound 36 and its phosphinamide analog phosphodiepril (FR 2 654 430, synthesized as disclosed therein) were stored separately in glass vials. At different time intervals samples were taken and analyzed by LC-MS.
When calculating the relative stability it was assumed that the compounds were completely dissolved during formulation. Therefore, the relative stability is 100% at the beginning (0 hour measurement). The following time measurements are recalculated from that measurement.

[3] = in vivo experiments with phosphodiepril
Excerpt: Thus, even in its pure form, the N-analog is not stable. Due to the rapid hydrolysis of the phosphonamide bond, enzyme inhibition activity of this compound can only be determined with difficulty.

[4] = tested on: Corynebacterium rathayii collagenase; conditions: cited from earlier work
[5] = Time 0 hr (set to 100% at the beginning)
[6] = Time 240 hr, relative to 0 hour

| Compound | enzyme inhibition EC 3.4.24.15 pIC50 [1] | enzyme inhibition EC 3.4.24.16 pIC50 (Neurolysine EC 3.4.24.16) | also measured |
| --- | --- | --- | --- |
| CCC(C)C(NC(=O)CCP(=O)(O)CCCCc1ccccc1)C(=O)NC(CC(C)C)C(=O)O (stereo not drawn) [Compound 9] | 6.3 | 5.6 | – |
| CC(C)C(NC(=O)CCP(=O)(O)CCCCc1ccccc1)C(=O)NC(Cc1ccccc1)C(=O)O (stereo not drawn) [Compound 7] | 6.2 | 6.1 | – |
| CCCCC(NC(=O)C(C)N(C)C(=O)CCP(=O)(O)CCCCc1ccccc1)C(=O)O (stereo not drawn) [Compound 11] | 6.2 | 6.1 | – |
| CCC(C)C(NC(=O)CCP(=O)(O)CCc1cccc2ccccc12)C(=O)NC(CC(C)C)C(=O)O (stereo not drawn) [Compound 30] | 5.8 | 5.2 | – |
| CC[C@H](C)[C@H](NC(=O)[C@@H]1CCCN1)C(=O)O [Pro-IIe] (H-Pro-Ile-OH) | – | – | Ki (endopeptidase 24.16): 90 µM; inhibition of endopeptidase 24.15 (endopeptidase 24.15): does not inhibit |
| CCCCC(NC(=O)C(NC(=O)CCP(=O)(O)CCCCc1ccccc1)C(C)C)C(=O)O (stereo not drawn) [Compound 6] | 6.8 | 6.7 | – |
| CCCC[C@H](NC(=O)[C@@H]1CCCN1C(=O)CCP(=O)(O)CCc1ccc2ccccc2c1)C(=O)O [Compound 36] | 8.9 | >7.5 | relative stability [2, 5]: 100%; relative stability ([2]; Time 3 hr, relative to 0 hour): 101%; relative stability ([2]; Time 72 hr, relative to 0 hour): 103%; relative stability [2, 6]: 100%; stability on storage (in words) [2]: remained stable |
| CCCCC(NC(=O)C(C)N(C)C(=O)CCP(=O)(O)CCc1ccc2ccccc2c1)C(=O)O (stereo not drawn) [Compound 32] | 7.0 | – | – |
| CCC(C)C(NC(=O)CCP(=O)(O)CCCCc1ccccc1)C(=O)NC(C(=O)O)C(C)C (stereo not drawn) [Compound 8] | 5.8 | 5.4 | – |
| CCCCC(NC(=O)C(NC(=O)CCP(=O)(O)CCc1cccc2ccccc12)C(C)C)C(=O)O (stereo not drawn) [Compound 26] | 6.5 | 6.3 | – |
| CCC(NC(=O)C(Cc1ccccc1)NC(=O)CCP(=O)(O)Cc1ccc2ccccc2c1)C(=O)O (stereo not drawn) [Compound 25] | 5.7 | 5.9 | – |
| CCCC[C@H](NC(=O)[C@@H]1CCCN1C(=O)CNP(=O)(O)CCc1ccc2ccccc2c1)C(=O)O [phosphodiepril, reference compound] | – | – | relative stability [2, 5]: 100%; relative stability ([2]; Time 3 hr, relative to 0 hour): 92%; relative stability ([2]; Time 72 hr, relative to 0 hour): 87%; relative stability [2, 6]: 82%; stability on storage (in words) [2]: gradually degraded; outcome of in vivo experiments [3]: negative results |
| CCCC[C@H](NC(=O)[C@@H]1CCCN1C(=O)CCP(=O)(O)CCc1ccccc1)C(=O)O [N-[1-[3-[hydroxyl-(2-phenyl-ethyl)phosphinyl]1-oxopropyl]-L-prolyl]-L-norleucine] | – | – | inhibition of Corynebacterium rathayii collagenase [4]: potent inhibitor |
| CCC(C)C(NC(=O)CCP(=O)(O)CCc1ccc2ccccc2c1)C(=O)NC(CC(C)C)C(=O)O (stereo not drawn) [Compound 29] | 7.0 | 6.6 | – |
| CCC(C)C(NC(=O)CCP(=O)(O)CCc1cccc2ccccc12)C(=O)NC(C(=O)O)C(C)C (stereo not drawn) [Compound 28] | 6.3 | 5.8 | – |
| CC(C)C(NC(=O)CCP(=O)(O)CCc1cccc2ccccc12)C(=O)NC(Cc1ccccc1)C(=O)O (stereo not drawn) [Compound 27] | 6.2 | 6.1 | – |
